Consider eight targets from the supplement of paper PMC6411743.

Compound in one test: Nc1ncnc2c1ncn2[C@@H]1O[C@H](COP(=O)(O)OP(=O)(O)OP(=O)(O)O)[C@@H](O)[C@H]1O [adenosine triphosphate]
Description: pEC50 of ATP-induced change in protein thermal stability (2D-TPP). In outline:
(§1)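 Soluble protein was quantified by TMT LC-MS/MS after ultracentrifugation of Jurkat crude lysate that had been dosed at five concentrations including vehicle (10 min, room temperature), heated at 12 temperatures of 42–63.9 °C for 3 min, and incubated with NP40 and benzonase at 4 °C for 60 min. Fold changes against vehicle at each temperature were median-normalised, and pEC50 was derived from per-replicate dose-response fits over adjacent temperature pairs. Hits were called with permutation-based false discovery rate control in three independent experiments.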

Compound in a further test: Nc1nc2c(ncn2[C@@H]2O[C@H](COP(=O)(O)OP(=O)(O)OP(=O)(O)O)[C@@H](O)[C@H]2O)c(=O)[nH]1 [guanosine triphosphate]
Description: pEC50 of GTP-induced change in protein thermal stability (2D-TPP). Summed up:
as §1
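Wherever pEC50 of ATP-induced change in protein thermal stability (2D-TPP) is given: lysate dosed with Na-ATP at 0 0.005 0.05 0.5 and 2 mM.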

UniProt Q16512, sequence (Q16512 whole entry, looked up): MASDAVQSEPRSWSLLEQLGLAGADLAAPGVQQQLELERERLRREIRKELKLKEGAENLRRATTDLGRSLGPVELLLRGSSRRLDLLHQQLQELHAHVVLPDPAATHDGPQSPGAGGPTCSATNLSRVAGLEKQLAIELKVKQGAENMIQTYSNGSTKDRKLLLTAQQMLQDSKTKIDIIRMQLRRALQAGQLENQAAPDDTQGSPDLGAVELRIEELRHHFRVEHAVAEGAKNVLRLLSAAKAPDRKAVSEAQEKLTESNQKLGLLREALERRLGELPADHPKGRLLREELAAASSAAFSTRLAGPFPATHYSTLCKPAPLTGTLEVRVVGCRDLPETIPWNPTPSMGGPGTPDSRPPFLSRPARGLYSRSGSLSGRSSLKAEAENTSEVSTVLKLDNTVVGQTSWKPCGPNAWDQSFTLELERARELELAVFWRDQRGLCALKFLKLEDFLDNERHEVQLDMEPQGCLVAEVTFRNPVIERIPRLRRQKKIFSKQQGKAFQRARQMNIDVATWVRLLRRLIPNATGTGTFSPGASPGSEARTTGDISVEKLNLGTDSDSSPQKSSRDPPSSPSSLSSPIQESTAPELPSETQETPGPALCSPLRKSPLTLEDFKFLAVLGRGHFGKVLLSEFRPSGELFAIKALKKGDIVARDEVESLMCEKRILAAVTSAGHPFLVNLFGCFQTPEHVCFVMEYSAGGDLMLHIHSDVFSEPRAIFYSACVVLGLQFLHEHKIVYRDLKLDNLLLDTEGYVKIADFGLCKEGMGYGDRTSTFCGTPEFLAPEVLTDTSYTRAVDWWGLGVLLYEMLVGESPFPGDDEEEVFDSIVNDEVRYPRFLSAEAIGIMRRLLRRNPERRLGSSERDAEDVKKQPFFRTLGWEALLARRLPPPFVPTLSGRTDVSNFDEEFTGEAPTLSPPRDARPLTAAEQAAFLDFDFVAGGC
UniProt Q9BW83, sequence (Q9BW83 whole entry): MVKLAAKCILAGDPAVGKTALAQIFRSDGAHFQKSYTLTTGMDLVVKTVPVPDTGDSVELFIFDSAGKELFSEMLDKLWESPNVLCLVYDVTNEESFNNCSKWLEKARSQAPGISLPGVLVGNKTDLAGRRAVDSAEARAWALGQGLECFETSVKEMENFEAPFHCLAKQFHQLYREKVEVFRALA
UniProt Q712K3, sequence (Q712K3 whole entry): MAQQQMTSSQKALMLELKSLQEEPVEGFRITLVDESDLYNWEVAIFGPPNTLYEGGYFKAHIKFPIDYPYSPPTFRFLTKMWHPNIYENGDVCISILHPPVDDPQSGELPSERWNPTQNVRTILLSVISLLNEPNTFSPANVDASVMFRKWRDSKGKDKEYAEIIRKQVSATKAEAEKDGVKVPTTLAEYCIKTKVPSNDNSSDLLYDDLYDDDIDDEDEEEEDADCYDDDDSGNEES
UniProt Q01130, sequence (Q01130 whole entry): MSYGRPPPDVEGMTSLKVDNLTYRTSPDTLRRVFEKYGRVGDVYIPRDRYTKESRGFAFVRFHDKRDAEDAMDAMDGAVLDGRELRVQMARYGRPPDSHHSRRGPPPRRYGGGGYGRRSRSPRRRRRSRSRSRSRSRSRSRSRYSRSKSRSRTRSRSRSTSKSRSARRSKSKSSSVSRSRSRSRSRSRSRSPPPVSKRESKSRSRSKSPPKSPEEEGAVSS
UniProt Q6XQN6, sequence (Q6XQN6 whole entry): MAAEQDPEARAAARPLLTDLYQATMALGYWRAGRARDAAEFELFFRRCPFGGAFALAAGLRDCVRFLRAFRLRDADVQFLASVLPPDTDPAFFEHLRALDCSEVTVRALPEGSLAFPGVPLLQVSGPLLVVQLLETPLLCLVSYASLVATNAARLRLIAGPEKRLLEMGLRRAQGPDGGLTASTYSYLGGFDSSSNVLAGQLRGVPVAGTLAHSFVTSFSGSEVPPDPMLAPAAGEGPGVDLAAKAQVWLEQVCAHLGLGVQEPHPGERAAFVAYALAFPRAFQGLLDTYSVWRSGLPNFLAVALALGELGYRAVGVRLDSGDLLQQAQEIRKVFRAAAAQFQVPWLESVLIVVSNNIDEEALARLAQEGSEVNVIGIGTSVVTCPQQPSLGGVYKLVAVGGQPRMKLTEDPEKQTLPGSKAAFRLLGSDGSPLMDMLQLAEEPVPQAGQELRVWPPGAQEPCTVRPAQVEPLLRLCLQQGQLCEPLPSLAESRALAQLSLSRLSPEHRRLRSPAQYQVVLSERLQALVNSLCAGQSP
UniProt Q15286, sequence (Q15286 whole entry): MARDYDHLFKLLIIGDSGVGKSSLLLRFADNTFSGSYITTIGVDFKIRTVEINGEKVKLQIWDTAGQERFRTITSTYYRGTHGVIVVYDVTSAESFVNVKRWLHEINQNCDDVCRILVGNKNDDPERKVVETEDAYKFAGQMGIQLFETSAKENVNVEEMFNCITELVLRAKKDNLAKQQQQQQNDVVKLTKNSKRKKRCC
UniProt P26640, sequence (P26640 whole entry): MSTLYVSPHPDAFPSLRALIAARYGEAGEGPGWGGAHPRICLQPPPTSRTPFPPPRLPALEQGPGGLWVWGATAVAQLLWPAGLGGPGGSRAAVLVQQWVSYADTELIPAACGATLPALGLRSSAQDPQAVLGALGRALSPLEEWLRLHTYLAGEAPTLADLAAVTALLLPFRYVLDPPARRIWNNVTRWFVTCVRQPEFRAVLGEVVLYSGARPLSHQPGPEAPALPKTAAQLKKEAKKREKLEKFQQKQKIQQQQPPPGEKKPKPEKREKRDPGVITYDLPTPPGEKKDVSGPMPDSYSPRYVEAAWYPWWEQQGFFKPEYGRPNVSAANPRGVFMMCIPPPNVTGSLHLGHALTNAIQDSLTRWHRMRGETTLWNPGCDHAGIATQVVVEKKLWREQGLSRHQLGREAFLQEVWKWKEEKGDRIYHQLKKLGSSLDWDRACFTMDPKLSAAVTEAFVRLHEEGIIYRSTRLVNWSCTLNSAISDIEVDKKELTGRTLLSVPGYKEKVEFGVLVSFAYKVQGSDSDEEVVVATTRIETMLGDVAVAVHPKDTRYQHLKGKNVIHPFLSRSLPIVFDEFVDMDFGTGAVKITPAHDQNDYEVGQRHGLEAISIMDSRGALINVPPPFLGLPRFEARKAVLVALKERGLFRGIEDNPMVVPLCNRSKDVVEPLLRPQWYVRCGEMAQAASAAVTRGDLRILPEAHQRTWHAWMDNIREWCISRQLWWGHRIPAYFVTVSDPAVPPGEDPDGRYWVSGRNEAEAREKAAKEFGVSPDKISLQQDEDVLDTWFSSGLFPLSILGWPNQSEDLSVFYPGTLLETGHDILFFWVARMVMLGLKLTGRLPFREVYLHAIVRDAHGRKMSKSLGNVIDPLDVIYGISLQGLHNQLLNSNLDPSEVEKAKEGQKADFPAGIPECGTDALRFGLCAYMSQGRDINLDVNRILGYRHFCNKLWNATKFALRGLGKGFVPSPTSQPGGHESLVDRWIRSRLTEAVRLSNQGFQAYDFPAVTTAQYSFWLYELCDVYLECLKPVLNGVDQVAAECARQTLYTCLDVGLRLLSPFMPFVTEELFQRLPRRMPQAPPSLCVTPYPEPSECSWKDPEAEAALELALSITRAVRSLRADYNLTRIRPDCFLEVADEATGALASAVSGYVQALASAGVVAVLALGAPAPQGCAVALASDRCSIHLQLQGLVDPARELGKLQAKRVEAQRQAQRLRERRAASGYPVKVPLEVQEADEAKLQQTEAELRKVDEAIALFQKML
UniProt O75351, sequence (O75351 whole entry): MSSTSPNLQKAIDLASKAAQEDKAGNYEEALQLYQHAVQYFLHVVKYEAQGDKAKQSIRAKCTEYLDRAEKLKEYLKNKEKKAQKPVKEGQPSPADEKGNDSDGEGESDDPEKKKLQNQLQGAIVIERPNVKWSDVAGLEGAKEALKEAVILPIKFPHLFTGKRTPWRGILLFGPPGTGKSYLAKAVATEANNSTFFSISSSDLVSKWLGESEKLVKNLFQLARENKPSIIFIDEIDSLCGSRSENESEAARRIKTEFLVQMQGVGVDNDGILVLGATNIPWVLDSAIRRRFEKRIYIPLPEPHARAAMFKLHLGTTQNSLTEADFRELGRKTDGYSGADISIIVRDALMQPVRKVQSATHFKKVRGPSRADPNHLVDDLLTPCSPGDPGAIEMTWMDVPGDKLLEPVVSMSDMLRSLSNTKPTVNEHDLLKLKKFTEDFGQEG

Regarding “UniProt Q6XQN6 (effect direction: stabilized)”, the figures for the pEC50 with adenosine triphosphate and in the test with guanosine triphosphate were 4.21 and 3.93, respectively.
As for “UniProt Q9BW83 (effect direction: stabilized)”, the figures for the pEC50 with adenosine triphosphate and in the test with guanosine triphosphate were 3.12 and 3.96, respectively.
Consider “UniProt Q712K3 (effect direction: stabilized)”, for which the pEC50 with adenosine triphosphate turned out to be 4.18; with guanosine triphosphate it was 3.86.
“UniProt Q01130 (effect direction: stabilized)”: the pEC50 with adenosine triphosphate was determined as 3.23; with guanosine triphosphate, 3.56.
For “UniProt Q15286 (effect direction: stabilized)”, in that order: 3.53 and 4.35.
As to “UniProt Q16512 (effect direction: stabilized)”, the pEC50 with adenosine triphosphate amounted to 3.69; with guanosine triphosphate, 4.22.
Regarding “VARS (effect direction: stabilized) (UniProt P26640)”, the pEC50 worked out at 3.57 in the test with adenosine triphosphate and 3.79 in the test with guanosine triphosphate.
Take “VPS4B (effect direction: stabilized) (UniProt O75351)”: the results for the negative logarithm of the EC50 (pEC50) with adenosine triphosphate and in the test with guanosine triphosphate were 4.33 and 3.92, respectively.

Broadly, the pEC50 is −log10 of the EC50, conventionally taken in molar units.
